Reference: patent publication EP0055996A1, “Antithrombotic treatment” (T AND R CHEMICALS, INC., priority 1980, dated 1982)

Assays:
coagulation factors [1] = assay: In vitro partial thromboplastin time (PTT) coagulation assay; design: species or system human; settings: for PTT(sec) REPLICATIONS I: replication I
Description: (§1) In vitro assays of the product of each of Examples A to C and certain of the Examples included in European Application No 81302950.1 were conducted for coagulation factors as described in "Human Blood Coagulation., Haemostasis and Thrombosis", edited by Rosemary Biggs, published by Blackwell Scientific Publications, Oxford, England (2nd Edition), pages 670-705, 1976.

coagulation factors [2] = assay: In vitro prothrombin time (PT) coagulation assay; design: species or system human; settings: for PT(sec) REPLICATIONS I: replication I
Description: as §1

[3] = Used at 0.01 Molar Concentration Based on NaHSO3
[4] = Used at 0.01 Molar Concentration Based on NaHSO3, replication II
[5] = Used at 0.01 Molar Concentration Based on NaHSO3, replication III

SMILES	PTT(sec) REPLICATIONS I (coagulation factors [1]; [3]) [s]	PTT(sec) REPLICATIONS II (coagulation factors [1]; [4]) [s]	PTT(sec) REPLICATIONS III (coagulation factors [1]; [5]) [s]	PT(sec) REPLICATIONS I (coagulation factors [2]; [3]) [s]	PT(sec) REPLICATIONS II (coagulation factors [2]; [4]) [s]	PT(sec) REPLICATIONS III (coagulation factors [2]; [5]) [s]	ability to affect PTT values (coagulation factors [1]; no conditions given)	ability to affect PT values (coagulation factors [2]; no conditions given)
O=S([O-])O.[Na+] [NaHSO3 in water, sodium bisulphite]	64.4	63.2	63.9	20.2	20.3	20.0	–	–
O=S(=O)(O)CO [Sodium formaldehyde bisulphite]	63.5	–	–	20.5	–	–	–	–
O=S=O [aqueous solutions of sulphur dioxide, sulphur dioxide]	–	–	–	–	–	–	display a capacity to lengthen PT and PTT values at least to the extent indicated above	display a capacity to lengthen PT and PTT values at least to the extent indicated above
